Data reported in patent publication US11977028B2, “Mechanical-bond-induced exciplex fluorescence” (Northwestern University, priority 2020, dated 2024).
Values joined by “and” are separate entries in the source; they are usually repeats but may differ in a detail not shown here. Equal entries are not always repeated. Blank lines part the entries; values can stand above or below the compound they belong to.

What was measured:
[1] = 1H NMR titration of guests into the ^2,6AnBox^4+ cavity (binding constant); details: 1H NMR titration in CD3CN; for binding constant Ka: high concentration of salt (saturated with KPF6, 140 mM); for association constant Ka: without salt
Description: The cavity of ^2,6AnBox^4+ is able to bind an anthracene molecule in a face-to-face manner as a result of [π . . . π] interactions. The formation of anthracene⊂^2,6AnBox^4+ (An⊂^2,6AnBox^4+) was confirmed by ^1H NMR titration in CD3CN. […] Further evidence for the formation of the 1:1 complex (anthracene⊂^2,6AnBox^4+) came from XRD analysis. […] It is remarkable that, upon addition of the anthracene guest to the cavity of ^2,6AnBox^4+, a tubular superstructure is formed along the c-axis, whereas along the b-axis, face-to-face [π . . . π] stacks form between the anthracene units. Apparently, the long-range [π . . . π] distances of 3.5 Å between the anthracene units are superstructure-directing in anthracene⊂^2,6AnBox^4+ instead of the anthracene-pyridinium DA interactions. The formation of the anthracene⊂^2,6AnBox^4+ complex implies that [π . . . π] interactions between the anthracene units can be sufficient to overcome the Coulombic repulsion and form the homo[2]catenane, ^2,6AnHC.8PF6.
Preparation of ^2,6AnHC.8PF6 was achieved following two synthetic procedures which consisted of mixing ^2,6AnBox.4PF6 with its precursors ^2,6AnDB.2PF6, and ^2,6AnBPY in the absence (Protocol I) or presence (Protocol II) of tetrabutylammonium hexafluorophosphate (TBAPF6). See Scheme 6. Our attempts to prepare ^2,6AnHC.8PF6 following Protocol I produced very low yields (<5%) of the catenane.
In order to evaluate whether the addition of salt would enhance the synthesis of the rigid ^2,6AnHC.8PF6 homo[2]catenane, we investigated the effects of the addition of tetrabutylammonium hexafluorophosphate (TBAPF6) salt on the formation of the ^2,6AnDB^2+⊂^2,6AnBox^4+ inclusion complex. […] Remarkably, the change in color of the solution from yellow to red implies^38 an increase in the strength of the ^2,6AnDB^2+⊂^2,6AnBox^4+ host-guest complex. In order to estimate the magnitude of the association constant between ^2,6AnDB^2+ and ^2,6AnBox^4+, we prepared (FIG. 2A-2C, Scheme 8) an anthracene-based dicationic model DM^2+. […] Consequently, the efficiency of the catenane synthesis is also found to be sensitive to the addition of TBAPF6. At a salt concentration of 250 mM, the homo[2]catenane ^2,6AnHC.8PF6 was prepared by mixing ^2,6AnBox.4PF6, ^2,6AnDB.2PF6, and ^2,6AnBPY in a 1:2:2 molar ratio in MeCN resulting in an isolated yield of up to 40%. See Scheme 2. The ^1H NMR spectrum of ^2,6AnHC^8+ was recorded at room temperature in CD3CN. Only three signals are observed which can be assigned to the pyridinium, methylene, and phenylene protons. All other resonances associated with the anthracene units disappear or are broadened at room temperature. In the temperature dependent 41 NMR spectra (data not shown), the signals for the anthracene protons reappear at low temperature and have been assigned based on 2D ROESY NMR spectroscopic measurements. These experiments confirm the dynamic nature of the homo[2]catenane in which the two mechanically interlocked rings undergo relative co-conformational changes at room temperature. The catenane was also characterized by high-resolution mass spectrometry (HR-MS). A characteristic peak corresponding to [M-3 PF6]^3+ is present in the mass spectrum (data no shown) at m/z of 823.7819 which compares well with the calculated value for m/z of 823.7814.
All reagents were purchased from commercial suppliers (Aldrich or Fisher) and used without further purification. Anthracene derivatives, 9,10-bis(4-pyridyl)anthracene (^9.^10AnBPY) and 2,6-bis(4-pyridyl)anthracene (^2,6AnBPY) were synthesized following^1,2 reports in the literature. All reactions and manipulations were carried out under a dry N2 atmosphere using standard Schlenk. Thin-layer chromatography (TLC) was performed on silica gel 60 F254 TLC plates (Merck). Column chromatography was carried out using CombiFlash® Automation Systems (Teledyne ISCO) employing both normal phase (RediSep Rf Gold® Normal-Phase Silica) and reverse phase (RediSep Rf Gold® Reversed-phase C18). […]

[2] = Absorption and photoluminescence spectroscopy in solution; type: physicochemical; details: for τ (emission lifetime): 405 nm excitation; for concentration dependence of excimer/exciplex emission: from high concentration to high dilution (10^−8 M)
Description: The close proximity of the anthracene units in the mechanically interlocked cyclophanes was expected to give rise to remarkable optical properties distinct from those of the free cyclophanes. We explored the absorption and fluorescence properties of all compounds at high dilution (4×10^−7 M) to avoid reabsorption processes^40 and aggregation effects.^17 All of the optical parameters are summarized in Tables 1 and 2. Initially, we explored the influence of the pyridine/pyridinium units on the optical properties of both ^2,6AnBox^4+ and ^9,10AnBox^4+ cyclophanes. The presence of two pyridinium units within the linker dramatically affect the optical properties of the anthracene moiety. Although ^2,6AnBPY (FIG. 5C) and ^9,10AnBPY display^41 characteristic vibronic peaks associated with the anthracene moiety at 290 and 400 nm, ^2,6AnDB^2+ and ^9,10AnDB^2+ display a shift of the band at 290 to 330 nm (FIG. 5A) and the emergence of a new featureless broad band at 450 nm associated with CT from the anthracene moiety to the pyridinium unit. It is noteworthy that phenylene-bridged bipyridyl linkers (ExBIPY) display^35 a single absorption peak at 325 nm in MeCN, while the anthracene moiety leads to the emergence of some push-pull D-A character.
All reagents were purchased from commercial suppliers (Aldrich or Fisher) and used without further purification. Anthracene derivatives, 9,10-bis(4-pyridyl)anthracene (^9.^10AnBPY) and 2,6-bis(4-pyridyl)anthracene (^2,6AnBPY) were synthesized following^1,2 reports in the literature. All reactions and manipulations were carried out under a dry N2 atmosphere using standard Schlenk. Thin-layer chromatography (TLC) was performed on silica gel 60 F254 TLC plates (Merck). Column chromatography was carried out using CombiFlash® Automation Systems (Teledyne ISCO) employing both normal phase (RediSep Rf Gold® Normal-Phase Silica) and reverse phase (RediSep Rf Gold® Reversed-phase C18). […] All the spectra were baseline-corrected with a MeCN blank sample. The photoluminescence spectra of all samples were obtained with a Fluorolog-3 spectrafluorometer (Horiba Jobin Yvon) in a 2-mm quartz cuvette with 3-nm slit width and a front-phase geometry. The time-correlated single photon counting setup is described elsewhere.^3 Nuclear magnetic resonance (NMR) spectra were recorded on a Bruker Avance III 500 and 600 MHz spectrometers, with working frequencies of 500 and 600 MHz (′H NMR) and 125 MHz (^13C NMR), respectively. Chemical shifts are reported in ppm relative to the signals corresponding to the residual non-deuterated solvents (CD3CN: δ1−1=1.94 ppm and δC=1.32 ppm). High-resolution mass spectra (HRMS) were measured on an Agilent 6210 Time of Flight (TOF) LC-MS, using an ESI source, coupled with Agilent 1100 HPLC stack, using direct infusion (0.6 mL min ^−1). The binding constants were determined using this link: website http://supramolecular.org.^4

[3] = test system: MIA PaCa-2 prostate cancer cells; assay: Live-cell confocal microscopy imaging; type: cell-based; details: 20×10^−6 M, 6 hours treatment, excitation 458 nm
Protocol: (§1) Cells were grown in standard DMEM (supplemented with 10% Fetal Bovine Serum and 1% Penicillin-Streptomycin, supplier=Corning). Cells were seeded into imaging coverglass chamber 40 hours prior to treatment. Compounds were resuspended in deionized H2O then diluted to the final concentration in media. Cells were treated with compounds for 6 hours prior to imaging.
(§2) All imaging was done on a Leica SP5 laser scanning confocal with LAS AF software in the Biological Imaging Facility at Northwestern University (Evanston, IL). A single excitation wavelength (458 nm) was used at a power of 5 uW. For the emission collection, two Leica spectral Hybrid (HyD) detectors were used; one was set to collect a wavelength range of 500-575 nm (with a gain of 200%) and the second was set to collect a wavelength range of 580-635 nm (with a gain of 103%). Images were processed with FIJI/ImageJ (NIH) and settings were kept consistent throughout the series of images.

MIA PaCa-2 cancer cells = assay: Live-cell confocal microscopy imaging; type: cell-based; details: concentrations lower than 10×10^−6 M
Protocol: as §1, §2

MIA PACA2 cancer cells = assay: Cell growth / toxicity by phase contrast imaging over 48 hours; type: cell-based; details: any concentration tested
Protocol: Cells were cultured for 4 hours then treated with the compounds at a range of concentrations. Upon treatment, cells were placed in a BioTek LionheartFX system, where they were imaged every 20 minutes for 48 hours, under standard culture conditions (37° C., 5% CO2). Phase contrast images were processed and analyzed with BioTek Gen5 analysis software to identify cell number at the start and end of the culture time. There was no significant difference in percent growth either between the two compounds or between the different concentrations and the untreated (0 mM) control.
as §1

[4] = reported in the literature; cited from earlier work

Compound: c1ccc(C[n+]2ccc(-c3ccc4cc5cc(-c6cc[n+](Cc7ccccc7)cc6)ccc5cc4c3)cc2)cc1 [DM^2+]
- binding constant Ka [1]: 611 M⁻¹
- association constant Ka [1]: 40 M⁻¹

Compound: c1ccc(C[n+]2ccc(-c3ccc4cc5cc(-c6ccncc6)ccc5cc4c3)cc2)cc1 [MM^+]
- binding constant Ka [1]: 540 M⁻¹
- association constant Ka [1]: 102 M⁻¹

Compound: [Cl-].[Cl-].[Cl-].[Cl-].c1cc2ccc1C[n+]1ccc(cc1)-c1ccc3cc4cc(ccc4cc3c1)-c1cc[n+](cc1)Cc1ccc(cc1)C[n+]1ccc(cc1)-c1ccc3cc4cc(ccc4cc3c1)-c1cc[n+](cc1)C2 [^2,6AnBox⋅4Cl]
- toxicity to the cells (MIA PACA2 cancer cells): Neither the catenane (^2,6AnHC.8Cl) nor the cyclophane (^2,6AnBox⋅4Cl) are toxic to the cells at any concentration tested

Second part, led by results:

- Φ (PL quantum yield) ([2]; 4 × 10^−7 M, MeCN): 3.6%
- λabs ([2]; 4 × 10^−7 M, MeCN): 458 nm
- λem ([2]; 4 × 10^−7 M, MeCN): 548 nm and 562 nm
- τ (emission lifetime) ([2]; 4 × 10^−7 M, MeCN): 3 ns
- λem ([2]; 4 × 10^−7 M, MeCN, listed as cyclophane): 562 nm
- Stokes shifts (δ) ([2]; DMF, 4 × 10^−7 M): 3153 cm⁻¹
- λabs ([2]; DMF, 4 × 10^−7 M): 472 nm
- λem ([2]; DMF, 4 × 10^−7 M): 549 nm
- λexc ([2]; DMF, 4 × 10^−7 M): 468 nm
- Stokes shifts (δ) ([2]; EtOH, 4 × 10^−7 M): 3574 cm⁻¹
- λabs ([2]; EtOH, 4 × 10^−7 M): 468 nm
- λem ([2]; EtOH, 4 × 10^−7 M): 562 nm
- λexc ([2]; EtOH, 4 × 10^−7 M): 468 nm
- Stokes shifts (δ) ([2]; H2O, 4 × 10^−7 M): 3284 cm⁻¹
- λabs ([2]; H2O, 4 × 10^−7 M): 458 nm
- λem ([2]; H2O, 4 × 10^−7 M): 553 nm
- λexc ([2]; H2O, 4 × 10^−7 M): 468 nm
- Stokes shifts (δ) ([2]; Me2SO, 4 × 10^−7 M): 3915 cm⁻¹
- λabs ([2]; Me2SO, 4 × 10^−7 M): 460 nm
- λem ([2]; Me2SO, 4 × 10^−7 M): 570 nm
- λexc ([2]; Me2SO, 4 × 10^−7 M): 466 nm
- charge transfer (CT) absorption band ([2]; MeCN): 458 nm
- Stokes shifts (δ) ([2]; MeCN, 4 × 10^−7 M (Table 2)): 3946 cm⁻¹
- λabs ([2]; MeCN, 4 × 10^−7 M (Table 2)): 458 nm
- λem ([2]; MeCN, 4 × 10^−7 M (Table 2)): 562 nm
- λexc ([2]; MeCN, 4 × 10^−7 M (Table 2)): 460 nm
- charge transfer (CT) absorption band ([2]; MeCN, listed as cyclophane): 455 nm
- Stokes shifts (δ) ([2]; MeOH, 4 × 10^−7 M): 3854 cm⁻¹
- λabs ([2]; MeOH, 4 × 10^−7 M): 460 nm
- λem ([2]; MeOH, 4 × 10^−7 M): 568 nm
- λexc ([2]; MeOH, 4 × 10^−7 M): 466 nm
Compound: c1cc2ccc1C[n+]1ccc(cc1)-c1ccc3cc4cc(ccc4cc3c1)-c1cc[n+](cc1)Cc1ccc(cc1)C[n+]1ccc(cc1)-c1ccc3cc4cc(ccc4cc3c1)-c1cc[n+](cc1)C2 [^2,6AnBox^4+]
- concentration dependence of excimer/exciplex emission [2]: absence of excimer emission at high concentration
- emission in the green channel (500-575 nm) in live cells [3]: an emission in the green channel
- emission in the red channel (580-635 nm) in live cells [3]: very weak emission in the red channel
- emission detected in live cells (MIA PaCa-2 cancer cells): No emissions

- association constant Ka [1]: 42 M⁻¹
- Φ (PL quantum yield) ([2]; 4 × 10^−7 M, MeCN): 7.0%
- λabs ([2]; 4 × 10^−7 M, MeCN): 453 nm
- λem ([2]; 4 × 10^−7 M, MeCN): 542 nm
- τ (emission lifetime) ([2]; 4 × 10^−7 M, MeCN): 10 ns
- charge transfer (CT) absorption band ([2]; MeCN): 450 nm
- absorption band (higher-energy band of the anthracene moiety) ([2]; MeCN, high dilution): 330 nm
Compound: BrCc1ccc(C[n+]2ccc(-c3ccc4cc5cc(-c6cc[n+](Cc7ccc(CBr)cc7)cc6)ccc5cc4c3)cc2)cc1 [^2,6AnDB^2+]
- concentration dependence of excimer/exciplex emission [2]: absence of excimer emission at high concentration

- association constant Ka [1]: 125 M⁻¹
Compound: c1ccc2cc3ccccc3cc2c1 [anthracene, reference compound]
- emission lifetime [4]: ~18 ns
